According to ChEMBL document CHEMBL1201862, “PubChem BioAssay data set” (2004):
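Values below derive from 48-hour exposures of cells grown in 96-well plates, with endpoints linearly interpolated between the two concentrations bracketing the appropriate inhibition level. At the GI50, growth is halved.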 Activity calls are given as the source filed them. Rule as the data show it: active = GI50 up to about 1.1 µM and inactive = higher.

Columns and labels:
Test in all cases: NCI tumour cell line growth inhibition, 48 h
HCC 2998 = system: HCC 2998
CCRF-CEM = system: CCRF-CEM
NCI-H226 = system: NCI-H226
NCI-H460 = system: NCI-H460
NCI/ADR-RES = system: NCI/ADR-RES
OVCAR-5 = system: OVCAR-5
U-251 = system: U-251
Hs-578T = system: Hs-578T
BT-549 = system: BT-549
Malme-3M = system: Malme-3M
SF-295 = system: SF-295
SK-MEL-5 = system: SK-MEL-5
A549 = system: A549
UACC-257 = system: UACC-257
UO-31 = system: UO-31
SNB-75 = system: SNB-75
SN12C = system: SN12C
MCF7 = system: MCF7
OVCAR-4 = system: OVCAR-4

SMILES	GI50 (HCC 2998)	GI50 (CCRF-CEM)	GI50 (NCI-H226)	GI50 (NCI-H460)	GI50 (NCI/ADR-RES)	GI50 (OVCAR-5)	GI50 (U-251)	GI50 (Hs-578T)	GI50 (BT-549)	GI50 (Malme-3M)	GI50 (SF-295)	GI50 (SK-MEL-5)	GI50 (A549)	GI50 (UACC-257)	GI50 (UO-31)	GI50 (SNB-75)	GI50 (SN12C)	GI50 (MCF7)	GI50 (OVCAR-4)
CCC1OC(=O)CC(O)C(C)C(OC2OC(C)CC(N(C)C)C2O)C(CC=O)CC(C)C(=O)/C=C/C2(C)OC2C1C (stereo unspecified)	> 100 µM (inactive)	4.91 µM (inactive)	16.3 µM (inactive)	> 100 µM (inactive)	31.2 µM (inactive)	41.3 µM (inactive)	14.8 µM (inactive)	32.4 µM (inactive)	15.1 µM (inactive)	21.7 µM (inactive)	29 µM (inactive)	15.2 µM (inactive)	49.4 µM (inactive)	> 100 µM (inactive)	23.3 µM (inactive)	19.3 µM (inactive)	18 µM (inactive)	5.47 µM (inactive)	–
N#Cc1c(-c2ccc([N+](=O)[O-])cc2)cc(-c2ccc(Nc3ccnc4cc(Cl)ccc34)cc2)nc1N	11.4 µM (inactive)	1.11 µM (active)	> 72.1 µM (inactive)	7.24 µM (inactive)	4.12 µM (inactive)	30.8 µM (inactive)	1.84 µM (inactive)	11.6 µM (inactive)	51.1 µM (inactive)	21.5 µM (inactive)	19 µM (inactive)	25.9 µM (inactive)	3.98 µM (inactive)	26.5 µM (inactive)	26.5 µM (inactive)	11.4 µM (inactive)	4.81 µM (inactive)	1.61 µM (inactive)	2.82 µM (inactive)
CS(=O)(=O)c1nc(-c2cc3c(c(S(C)(=O)=O)n2)CCCC3)cc2c1CCCC2	> 100 µM (inactive)	> 100 µM (inactive)	> 100 µM (inactive)	–	> 64.3 µM (inactive)	> 100 µM (inactive)	> 55.3 µM (inactive)	12.4 µM (inactive)	> 43.2 µM (inactive)	> 100 µM (inactive)	33.6 µM (inactive)	> 100 µM (inactive)	> 100 µM (inactive)	> 100 µM (inactive)	0.048 µM (active)	6.75 µM (inactive)	> 100 µM (inactive)	> 100 µM (inactive)	> 100 µM (inactive)
NC(=O)C(Nc1ccc(Cl)cc1)c1cc2cc(Br)ccc2nc1Cl (stereo unspecified)	> 50 µM (inactive)	23.8 µM (inactive)	> 50 µM (inactive)	> 50 µM (inactive)	> 50 µM (inactive)	> 50 µM (inactive)	–	> 50 µM (inactive)	> 50 µM (inactive)	> 50 µM (inactive)	> 50 µM (inactive)	42.2 µM (inactive)	30.2 µM (inactive)	> 50 µM (inactive)	> 50 µM (inactive)	> 50 µM (inactive)	> 50 µM (inactive)	40.8 µM (inactive)	> 50 µM (inactive)
COc1cc(/C=C2\N=C(c3ccccc3)N(c3ccc4c(c3)Sc3cc(N5C(=O)/C(=C/c6cc(OC)c(OC)c(OC)c6)N=C5c5ccccc5)ccc3N4)C2=O)cc(OC)c1OC	21.2 µM (inactive)	22 µM (inactive)	–	31.3 µM (inactive)	31 µM (inactive)	20.6 µM (inactive)	21 µM (inactive)	21.8 µM (inactive)	23.4 µM (inactive)	19.5 µM (inactive)	22.9 µM (inactive)	16.5 µM (inactive)	37.6 µM (inactive)	16.9 µM (inactive)	31.3 µM (inactive)	24.7 µM (inactive)	25.9 µM (inactive)	21 µM (inactive)	18.9 µM (inactive)
Cc1ccccc1S(=O)(=O)Nn1cnc2ccc(S(=O)(=O)Nc3ccc(Cl)cc3)cc2c1=O	> 100 µM (inactive)	> 100 µM (inactive)	> 100 µM (inactive)	> 100 µM (inactive)	> 100 µM (inactive)	> 100 µM (inactive)	> 100 µM (inactive)	28.8 µM (inactive)	> 100 µM (inactive)	> 100 µM (inactive)	48.4 µM (inactive)	–	> 100 µM (inactive)	> 100 µM (inactive)	18.1 µM (inactive)	> 100 µM (inactive)	> 100 µM (inactive)	> 100 µM (inactive)	> 100 µM (inactive)
C=CCNC1=C2C[C@@H](C)C[C@@H](OC)[C@H](OC(=O)CN)[C@H](C)/C=C(\C)[C@@H](OC(N)=O)[C@H](OC)/C=C\C=C(/C)C(=O)NC(=CC1=O)C2=O	0.27 µM (active)	1.27 µM (inactive)	–	0.504 µM (active)	36.1 µM (inactive)	6.25 µM (inactive)	1.29 µM (inactive)	7.73 µM (inactive)	10.3 µM (inactive)	0.456 µM (active)	0.488 µM (active)	0.476 µM (active)	0.359 µM (active)	0.528 µM (active)	5.87 µM (inactive)	1.7 µM (inactive)	0.497 µM (active)	0.162 µM (active)	4.35 µM (inactive)
C=CC[C@]12C=C(OC)[C@@H](O)[C@](OC)(C(c3cc(OC)c4c(c3)OCO4)[C@H]1C)[C@H]2OC(C)=O (stereo partly specified)	> 100 µM (inactive)	> 100 µM (inactive)	> 100 µM (inactive)	> 100 µM (inactive)	> 100 µM (inactive)	> 100 µM (inactive)	> 100 µM (inactive)	22.6 µM (inactive)	> 100 µM (inactive)	> 100 µM (inactive)	> 100 µM (inactive)	> 100 µM (inactive)	> 100 µM (inactive)	> 100 µM (inactive)	89.3 µM (inactive)	40.7 µM (inactive)	> 100 µM (inactive)	> 100 µM (inactive)	69.2 µM (inactive)
Cc1cc(=O)oc2c(CN3CCCCC3)c(O)ccc12	> 100 µM (inactive)	> 100 µM (inactive)	> 100 µM (inactive)	> 100 µM (inactive)	> 100 µM (inactive)	> 100 µM (inactive)	> 100 µM (inactive)	> 100 µM (inactive)	> 100 µM (inactive)	> 100 µM (inactive)	> 100 µM (inactive)	> 100 µM (inactive)	> 100 µM (inactive)	> 100 µM (inactive)	–	> 100 µM (inactive)	> 100 µM (inactive)	> 100 µM (inactive)	> 100 µM (inactive)
COc1cccc(-c2cc(=O)c3ccc(C)nc3[nH]2)c1	0.0715 µM (active)	0.0459 µM (active)	0.0434 µM (active)	0.0451 µM (active)	0.0594 µM (active)	0.239 µM (active)	0.0508 µM (active)	0.0687 µM (active)	0.299 µM (active)	0.0403 µM (active)	0.0371 µM (active)	0.036 µM (active)	0.0728 µM (active)	–	0.0752 µM (active)	0.0201 µM (active)	0.122 µM (active)	0.165 µM (active)	3.78 µM (inactive)
COc1cc2c(cc1C[N+](C)(C)CSc1ccccc1)-c1ccccc1CC2	4.31 µM (inactive)	3.64 µM (inactive)	9.02 µM (inactive)	3.29 µM (inactive)	37.5 µM (inactive)	12 µM (inactive)	4.14 µM (inactive)	4.99 µM (inactive)	3.89 µM (inactive)	1.71 µM (inactive)	12.2 µM (inactive)	1.17 µM (inactive)	19 µM (inactive)	2.52 µM (inactive)	15.2 µM (inactive)	1.19 µM (inactive)	6.21 µM (inactive)	5 µM (inactive)	5.98 µM (inactive)
